Assay results published in the supplement of paper PMC12613149.

What was measured:
[1] = collision cross section (TIMS, N2 drift gas) of the primary ion; higher = larger gas-phase ion size
[2] = reversed-phase LC retention time (C18, 15 min MeOH gradient); higher = more hydrophobic / later elution
[3] = ionization mode: ESI+, ion species: [M+H]+
[4] = ionization mode: ESI-, ion species: [M-H]-

Row | SMILES | collision cross section [1, 3] [Å²] | collision cross section [1, 4] [Å²] | reversed-phase LC retention time [2, 3] [min] | reversed-phase LC retention time [2, 4] [min]
1 | CN(C1CCCCC1)C1CCCCC1 [N-Methyl-dicyclohexylamine] | 148.45 | – | 9.45 | –
2 | CCCCCCCCCCCCNC [N-Methyldodecylamine] | 167.22 | – | 15.5 | –
3 | CC(C)Nc1ccc(Nc2ccccc2)cc1 [N-isopropyl-N-phenyl-p-phenylenediamine] | 171.67 | – | 8.47 | –
4 | CCN(CC)C(=O)C(C)Oc1cccc2ccccc12 (centres undefined) [Napropamide] | 164.64 | – | 14.9 | –
5 | COc1cc(OC)nc(NC(=O)NS(=O)(=O)c2ncccc2C(=O)N(C)C)n1 [Nicosulfuron] | 193.46 | 194.5 | 11.4 | 8.07
6 | c1ccc2c(c1)[nH]c1cnccc12 [Norharmane] | 132.84 | 129.43 | 8.24 | 12.9
7 | CNC(=O)CSP(=O)(OC)OC [Omethoate] | 135.65 | – | 6.04 | –
8 | CC(C)Oc1cc(-n2nc(C(C)(C)C)oc2=O)c(Cl)cc1Cl [Oxadiazone] | 182.66 | – | 16.9 | –
9 | O=C1Nc2ccc(Cl)cc2C(c2ccccc2)=NC1O (centres undefined) [Oxazepam] | 164.08 | 162.74 | 13.1 | 13.4
10 | CCCC(Cn1cncn1)c1ccc(Cl)cc1Cl (centres undefined) [Penconazole] | 166.33 | – | 15.5 | –
11 | O=C(Nc1ccccc1)N(Cc1ccc(Cl)cc1)C1CCCC1 [Pencycuron] | 181.17 | – | 16.1 | –
12 | CCC(CC)Nc1c([N+](=O)[O-])cc(C)c(C)c1[N+](=O)[O-] [Pendimethalin] | 160.71 | – | 17.1 | –
13 | COc1cnc(OC)n2nc(NS(=O)(=O)c3c(OCC(F)F)cccc3C(F)(F)F)nc12 [Penoxsulam] | 196.63 | – | 12.3 | –
14 | Oc1c(Cl)c(Cl)c(Cl)c(Cl)c1Cl [Pentachlorophenol] | – | 137.44 | – | 13.8
15 | CCCC(C)C1(CC)C(=O)NC(=O)NC1=O (centres undefined) [Pentobarbital] | – | 150.46 | – | 12.2
16 | CC(=O)CCCCn1c(=O)c2c(ncn2C)n(C)c1=O [Pentoxifylline] | 160.14 | – | 9.78 | –
17 | O=S(=O)(O)C(F)(F)C(F)(F)C(F)(F)C(F)(F)F [Perfluorobutanesulfonic acid] | – | 132.6 | – | 11.3
18 | O=C(O)C(F)(F)C(F)(F)C(F)(F)C(F)(F)C(F)(F)C(F)(F)C(F)(F)C(F)(F)C(F)(F)F [Perfluorodecanoic acid] | – | 173.66 | – | 16
19 | O=C(O)C(F)(F)C(F)(F)C(F)(F)C(F)(F)C(F)(F)C(F)(F)C(F)(F)C(F)(F)C(F)(F)C(F)(F)C(F)(F)F [Perfluorododecanoic acid] | – | 191.62 | – | 17

Now from value to compound:

Row | collision cross section [1, 3] [Å²] | collision cross section [1, 4] [Å²] | reversed-phase LC retention time [2, 3] [min] | reversed-phase LC retention time [2, 4] [min] | SMILES
20 | 155.21 | 157 | 14.1 | 15.9 | c1ccc2sc(NC3CCCCC3)nc2c1 [N-Cyclohexyl-2-benzothiazole-amine]
21 | 135.66 | – | 10.7 | – | CCNC(=O)c1cccc(C)c1 [N-Ethyl-3-methylbenzamide]
22 | – | 143.19 | – | 11.5 | CCNS(=O)(=O)c1ccccc1C [N-Ethyl-o-toluenesulfonamide]
23 | 149.16 | – | 7.74 | – | Cc1c(NC=O)c(=O)n(-c2ccccc2)n1C [N-Formyl-4-aminoantipyrine]
24 | 175.51 | – | 16.4 | – | CCCCCCCCCCCC(=O)NCCO [N-Lauroylethanolamine]
25 | – | 134.48 | – | 8.4 | CNS(=O)(=O)c1ccccc1 [N-Methylbenzenesulfonamide]
26 | 153.28 | – | 16.1 | – | c1ccc(Nc2cccc3ccccc23)cc1 [N-Phenyl-1-naphthylamine]
27 | 151.76 | – | 13.8 | – | COc1ccc2cc(C(C)C(=O)O)ccc2c1 (centres undefined) [Naproxen]
28 | 135.54 | – | 2.26 | – | CN1CCCC1c1cccnc1 (centres undefined) [Nicotine]
29 | 184.47 | 183.62 | 14.4 | 14.7 | CCOC(=O)C1=C(C)NC(C)=C(C(=O)OC)C1c1cccc([N+](=O)[O-])c1 (centres undefined) [Nitrendipin]
30 | – | 149.37 | – | 6.35 | O=C1CN(/N=C/c2ccc([N+](=O)[O-])o2)C(=O)N1 [Nitrofurantoin]
31 | – | 161.38 | – | 17.9 | CC(C)CC(C)CC(C)c1ccc(O)cc1 (stereo not drawn) [Nonylphenol_isomers]
32 | 177.62 | – | 13.9 | – | C#C[C@]1(O)CC[C@H]2[C@@H]3CCC4=CC(=O)CC[C@@H]4[C@H]3CC[C@@]21C [Norethindrone]
33 | 173.95 | – | 8.08 | – | CCn1cc(C(=O)O)c(=O)c2cc(F)c(N3CCNCC3)cc21 [Norfloxacin]
34 | 200.98 | – | 16.3 | – | C#C[C@]1(OC(C)=O)CC[C@H]2[C@@H]3CCC4=C/C(=N/O)CC[C@@H]4[C@H]3CC[C@@]21CC [Norgestimate]
35 | 235.31 | 232.92 | 8.03 | 11.7 | CC1(C)CC(NC(=O)c2cccc(C(=O)NC3CC(C)(C)NC(C)(C)C3)c2)CC(C)(C)N1 [Nylostab S-EED]
36 | 182.54 | – | 7.93 | – | CC1COc2c(N3CCN(C)CC3)c(F)cc3c(=O)c(C(=O)O)cn1c23 (centres undefined) [Ofloxacin]
37 | 177.48 | – | 18.5 | – | CCCCCCCC/C=C\CCCCCCCC(N)=O [Oleic acid amide]
38 | 179.62 | 181.72 | 11.2 | 13.9 | COc1ccc2nc(SCc3ncc(C)c(OC)c3C)[nH]c2c1 [Omeprazole sulfide]
39 | 173.57 | – | 9.49 | – | Cc1nccn1CC1CCc2c(c3ccccc3n2C)C1=O (centres undefined) [Ondansetron]
40 | – | 232.61 | – | 19.9 | CCCCCCCCCCC[C@@H](C[C@@H]1OC(=O)[C@H]1CCCCCC)OC(=O)[C@H](CC(C)C)NC=O [Orlistat]
41 | 155.46 | – | 10.7 | – | NC(=O)N1c2ccccc2CC(=O)c2ccccc21 [Oxcarbazepine]
42 | 187.9 | – | 13.4 | – | CCN(CC)CC#CCOC(=O)C(O)(c1ccccc1)C1CCCCC1 (centres undefined) [Oxybutynin]
43 | 198.92 | – | 8.42 | – | CN(C)[C@@H]1C(O)=C(C(N)=O)C(=O)[C@@]2(O)C(O)=C3C(=O)c4c(O)cccc4[C@@](C)(O)[C@H]3[C@H](O)[C@@H]12 [Oxytetracycline]
44 | 193.35 | – | 18.3 | – | CCCCCCCCCCCCCCCC(=O)NCCO [Palmitoylethanolamide]
45 | – | 133.26 | – | 11.4 | O=C(O)C(F)(F)C(F)(F)C(F)(F)OC(F)(F)F [Perfluoro-4-methoxybutanoic acid]
